These molecules were tested on hypoxia-inducible endogenous VEGF expression (assay: Hypoxia-inducible endogenous VEGF expression ELISA in HeLa cells, dose-response (EC50, Table 3)). Settings: Homo sapiens, read-out: ELISA EC50 μM.

SMILES	EC50 [µM]
COc1ccc(OC(=O)N2CCc3c([nH]c4ccc(Cl)cc34)C2c2ccc(OCCCN(C)C)cc2)cc1 (centres unmarked) [Compound 501]	0.04 to 0.2
O=C(Oc1ccc(Cl)cc1)N1CCc2c([nH]c3ccc(Cl)cc23)C1c1ccc(OCCCCN2CCCCC2)cc1 (centres unmarked) [Compound 703]	0.008 to 0.04
COCCCNCCCCCCOc1ccc(C2c3[nH]c4ccc(Cl)cc4c3CCN2C(=O)Oc2ccc(F)cc2)cc1 (centres unmarked) [Compound 775]	< 0.008
CC(=O)N1CCN(CC(O)COc2ccc(C3c4[nH]c5ccc(Cl)cc5c4CCN3C(=O)Oc3ccc(F)cc3)cc2)CC1 (centres unmarked) [Compound 637]	< 0.008
CC(=O)N1CCN(CC(O)COc2ccc(C3c4[nH]c5ccc(Cl)cc5c4CCN3C(=O)Oc3ccc(Cl)cc3)cc2)CC1 (centres unmarked) [Compound 415]	< 0.008
O=C(Oc1ccc(F)cc1)N1CCc2c([nH]c3ccc(Cl)cc23)C1c1ccc(OCCCCNCCCn2ccnc2)cc1 (centres unmarked) [Compound 741]	0.04 to 0.2
O=C(Oc1ccc(F)cc1)N1CCc2c([nH]c3ccc(Cl)cc23)C1c1ccc(OCCCCCCN2CCCCC2)cc1 (centres unmarked) [Compound 777]	< 0.008
O=C(Oc1ccc(Cl)cc1)N1CCc2c([nH]c3ccc(Cl)cc23)C1c1ccc(OCCCN2CCOCC2)cc1 (centres unmarked) [Compound 894]	< 0.008
CC(=O)N1CCN(CCCOc2ccc(C3c4[nH]c5ccc(Cl)cc5c4CCN3C(=O)Oc3ccc(F)cc3)cc2)CC1 (centres unmarked) [Compound 988]	< 0.008
CN(C)CCN(C)CCCOc1ccc([C@H]2c3[nH]c4ccc(Cl)cc4c3CCN2C(=O)Oc2ccc(Cl)cc2)cc1 [Compound 1611]	< 0.008
CN1CCCC(COc2ccc(C3c4[nH]c5ccc(Cl)cc5c4CCN3C(=O)Oc3ccccc3)cc2)C1 (centres unmarked) [Compound 952]	0.008 to 0.04
COCCN(C)CCCOc1ccc(C2c3[nH]c4ccc(Cl)cc4c3CCN2C(=O)Oc2ccc(F)cc2)cc1 (centres unmarked) [Compound 992]	0.04 to 0.2
CN1CCN(CC(O)COc2ccc(C3c4[nH]c5ccc(Cl)cc5c4CCN3C(=O)Oc3ccc(Cl)cc3)cc2)CC1 (centres unmarked) [Compound 970]	0.008 to 0.04
O=C(Oc1ccc(F)cc1)N1CCc2c([nH]c3ccc(Cl)cc23)C1c1ccc(OCCCCCCNCCO)cc1 (centres unmarked) [Compound 772]	< 0.008
COc1ccc(C2c3[nH]c4ccc(Cl)cc4c3CCN2C(=O)Oc2ccc(Cl)cc2)cc1 (centres unmarked) [Compound #10]	< 0.008
O=C(Oc1ccc(Cl)cc1)N1CCc2c([nH]c3ccc(Cl)cc23)C1c1ccc(OCCCCN2CCOCC2)cc1 (centres unmarked) [Compound 702]	0.008 to 0.04
O=C(Oc1ccc(F)cc1)N1CCc2c([nH]c3ccc(Cl)cc23)C1c1ccc(OCC(O)CN2CCOCC2)cc1 (centres unmarked) [Compound 638]	< 0.008
O=C(Oc1ccc(Cl)cc1)N1CCc2c([nH]c3ccc(Cl)cc23)C1c1ccc(OCCCN2CCCC2)cc1 (centres unmarked) [Compound 429]	< 0.008
CC(C)NCCCCCCOc1ccc(C2c3[nH]c4ccc(Cl)cc4c3CCN2C(=O)Oc2ccc(F)cc2)cc1 (centres unmarked) [Compound 774]	0.008 to 0.04
COCCN(CCCOc1ccc(C2c3[nH]c4ccc(Cl)cc4c3CCN2C(=O)Oc2ccc(F)cc2)cc1)CCOC (centres unmarked) [Compound 990]	< 0.008
CN1CCN(CCCOc2ccc(C3c4[nH]c5ccc(Cl)cc5c4CCN3C(=O)Oc3ccc(F)cc3)cc2)CC1 (centres unmarked) [Compound 993]	< 0.008
CCN(CC)CC(O)COc1ccc(C2c3[nH]c4ccc(Cl)cc4c3CCN2C(=O)Oc2ccc(Cl)cc2)cc1 (centres unmarked) [Compound 938]	< 0.008
CN1CCCC(COc2ccc(C3c4[nH]c5ccc(Cl)cc5c4CCN3C(=O)Oc3ccccc3Cl)cc2)C1 (centres unmarked) [Compound 976]	0.04 to 0.2

SMILES	EC50 [µM]
O=C(Oc1ccc(Cl)cc1)N1CCc2c([nH]c3ccc(Cl)cc23)C1c1ccc(OCCCCCCN2CCCCC2)cc1 (centres unmarked) [Compound 787]	< 0.008
CN1CCN(CC(O)COc2ccc(C3c4[nH]c5ccc(Cl)cc5c4CCN3C(=O)Oc3ccc(F)cc3)cc2)CC1 (centres unmarked) [Compound 963]	0.008 to 0.04
COCCN(C)CC(O)COc1ccc(C2c3[nH]c4ccc(Cl)cc4c3CCN2C(=O)Oc2ccc(Cl)cc2)cc1 (centres unmarked) [Compound 964]	0.008 to 0.04
O=C(Oc1ccc(Cl)cc1)N1CCc2c([nH]c3ccc(Cl)cc23)C1c1ccc(OCCN2CCOCC2)cc1 (centres unmarked) [Compound 331]	> 1
CN1CCN(CCCCOc2ccc(C3c4[nH]c5ccc(Cl)cc5c4CCN3C(=O)Oc3ccc(F)cc3)cc2)CC1 (centres unmarked) [Compound 740]	0.04 to 0.2
COCCN(C)CC(O)COc1ccc(C2c3[nH]c4ccc(Cl)cc4c3CCN2C(=O)Oc2ccc(F)cc2)cc1 (centres unmarked) [Compound 936]	< 0.008
O=C(Oc1ccc(Cl)cc1)N1CCc2c([nH]c3ccc(Cl)cc23)C1c1ccc(OCC(O)CN2CCN(CCO)CC2)cc1 (centres unmarked) [Compound 960]	0.008 to 0.04
COc1ccc(OC(=O)N2CCc3c([nH]c4ccc(Cl)cc34)C2c2ccc(OCC3CCCN(C)C3)cc2)cc1 (centres unmarked) [Compound 981]	0.04 to 0.2
Cc1ccc(OC(=O)N2CCc3c([nH]c4ccc(Cl)cc34)[C@@H]2c2ccc(OCCC(O)CN3CCOCC3)cc2)cc1 (some centres unmarked) [Compound 1302]	0.04 to 0.2
COCCN(CCOC)CC(O)COc1ccc(C2c3[nH]c4ccc(Cl)cc4c3CCN2C(=O)Oc2ccc(Cl)cc2)cc1 (centres unmarked) [Compound 918]	< 0.008
Cc1ccc(OC(=O)N2CCc3c([nH]c4ccc(Cl)cc34)C2c2ccc(OCCCN(C)C)cc2)cc1 (centres unmarked) [Compound 502]	0.04 to 0.2
O=C(Oc1ccc(F)cc1)N1CCc2c([nH]c3ccc(Cl)cc23)C1c1ccc(OCC(O)CN2CCSCC2)cc1 (centres unmarked) [Compound 925]	< 0.008
CN1CCCC(COc2ccc(C3c4[nH]c5ccc(Cl)cc5c4CCN3C(=O)Oc3ccc(F)cc3)cc2)C1 (centres unmarked) [Compound 932]	< 0.008
COCCN(C)CCCOc1ccc(C2c3[nH]c4ccc(Cl)cc4c3CCN2C(=O)Oc2ccc(Cl)cc2)cc1 (centres unmarked) [Compound 908]	< 0.008
O=C(Oc1ccc(F)cc1)N1CCc2c([nH]c3ccc(Cl)cc23)C1c1ccc(OCCCCNCCO)cc1 (centres unmarked) [Compound 735]	< 0.008
COCCCNCCCCOc1ccc(C2c3[nH]c4ccc(Cl)cc4c3CCN2C(=O)Oc2ccc(F)cc2)cc1 (centres unmarked) [Compound 737]	0.008 to 0.04
CN(C)CCCOc1ccc(C2c3[nH]c4ccc(Cl)cc4c3CCN2C(=O)Oc2ccccc2)cc1 (centres unmarked) [Compound 493]	0.04 to 0.2
CN(C)CC(=O)Nc1ccc(C2c3[nH]c4ccc(Cl)cc4c3CCN2C(=O)Oc2ccc(Cl)cc2)cc1 (centres unmarked) [Compound 491]	0.04 to 0.2
O=C(Oc1ccc(Cl)cc1)N1CCc2c([nH]c3ccc(Cl)cc23)C1c1ccc(OCCCCNCCO)cc1 (centres unmarked) [Compound 699]	0.008 to 0.04
O=C(Oc1ccc(F)cc1)N1CCc2c([nH]c3ccc(Cl)cc23)C1c1ccc(OCCCCN2CCCC2)cc1 (centres unmarked) [Compound 736]	< 0.008
CN1CCN(CCCCCCOc2ccc(C3c4[nH]c5ccc(Cl)cc5c4CCN3C(=O)Oc3ccc(F)cc3)cc2)CC1 (centres unmarked) [Compound 778]	< 0.008
O=C(Oc1ccc(F)cc1)N1CCc2c([nH]c3ccc(Cl)cc23)C1c1ccc(OCCCCN2CCCCC2)cc1 (centres unmarked) [Compound 739]	< 0.008
O=C(Oc1ccc(F)cc1)N1CCc2c([nH]c3ccc(Cl)cc23)C1c1ccc(OCCCN2CCOCC2)cc1 (centres unmarked) [Compound 989]	< 0.008

SMILES	EC50 [µM]
O=C(CN1CCOCC1)Nc1ccc(C2c3[nH]c4ccc(Cl)cc4c3CCN2C(=O)Oc2ccc(Cl)cc2)cc1 (centres unmarked) [Compound 454]	0.008 to 0.04
O=C(Oc1ccc(Cl)cc1)N1CCc2c([nH]c3ccc(Cl)cc23)C1c1ccc(OCC(O)CN2CCCC2)cc1 (centres unmarked) [Compound 462]	0.008 to 0.04
O=C(Oc1ccc(Cl)cc1)N1CCc2c([nH]c3ccc(Cl)cc23)C1c1ccc(OCCCN2CCSCC2)cc1 (centres unmarked) [Compound 933]	< 0.008
O=C(Oc1ccc(Cl)cc1)N1CCc2c([nH]c3ccc(Cl)cc23)C1c1ccc(OCCCN2CCCCC2)cc1 (centres unmarked) [Compound 433]	< 0.008
O=C(Oc1ccc(F)cc1)N1CCc2c([nH]c3ccc(Cl)cc23)C1c1ccc(OCCCCCCN2CCOCC2)cc1 (centres unmarked) [Compound 776]	< 0.008
CC(C)NCCCOc1ccc(C2c3[nH]c4ccc(Cl)cc4c3CCN2C(=O)Oc2ccc(Cl)cc2)cc1 (centres unmarked) [Compound 953]	0.008 to 0.04
CN1CCN(CCCCCCOc2ccc(C3c4[nH]c5ccc(Cl)cc5c4CCN3C(=O)Oc3ccc(Cl)cc3)cc2)CC1 (centres unmarked) [Compound 788]	0.008 to 0.04
COCCCNCCCCOc1ccc(C2c3[nH]c4ccc(Cl)cc4c3CCN2C(=O)Oc2ccc(Cl)cc2)cc1 (centres unmarked) [Compound 701]	0.008 to 0.04
O=C(Oc1ccc(Cl)cc1)N1CCc2c([nH]c3ccc(Cl)cc23)C1c1ccc(OCCCCN2CCCC2)cc1 (centres unmarked) [Compound 698]	0.008 to 0.04
NCC(O)COc1ccc(C2c3[nH]c4ccc(Cl)cc4c3CCN2C(=O)Oc2ccc(Cl)cc2)cc1 (centres unmarked) [Compound 846]	0.04 to 0.2
CN(C)CCCOc1ccc(C2c3[nH]c4ccc(Cl)cc4c3CCN2C(=O)Oc2ccc(Br)cc2)cc1 (centres unmarked) [Compound 468]	0.008 to 0.04
O=C(Oc1ccc(Cl)cc1)N1CCc2c([nH]c3ccc(Cl)cc23)C1c1ccc(OCCCCCCNCCCn2ccnc2)cc1 (centres unmarked) [Compound 789]	0.04 to 0.2
Cc1ccc(OC(=O)N2CCc3c([nH]c4ccc(Cl)cc34)C2c2ccc(OCC3CCCN(C)C3)cc2)cc1 (centres unmarked) [Compound 951]	0.008 to 0.04
CC(C)NCCCCCCOc1ccc(C2c3[nH]c4ccc(Cl)cc4c3CCN2C(=O)Oc2ccc(Cl)cc2)cc1 (centres unmarked) [Compound 784]	< 0.008
COCCN(CCOC)CC(O)COc1ccc(C2c3[nH]c4ccc(Cl)cc4c3CCN2C(=O)Oc2ccc(F)cc2)cc1 (centres unmarked) [Compound 913]	< 0.008
COCCN(CCCOc1ccc(C2c3[nH]c4ccc(Cl)cc4c3CCN2C(=O)Oc2ccc(Cl)cc2)cc1)CCOC (centres unmarked) [Compound 916]	< 0.008
O=C(Oc1ccc(Cl)cc1)N1CCc2c([nH]c3ccc(Cl)cc23)C1c1ccc(OCCCCCCN2CCOCC2)cc1 (centres unmarked) [Compound 786]	< 0.008
CC(C)NCC(O)COc1ccc(C2c3[nH]c4ccc(Cl)cc4c3CCN2C(=O)Oc2ccc(Cl)cc2)cc1 (centres unmarked) [Compound 977]	0.04 to 0.2
O=C(Oc1ccc(Cl)cc1)N1CCc2c([nH]c3ccc(Cl)cc23)C1c1ccc(OCC(O)CN2CCSCC2)cc1 (centres unmarked) [Compound 923]	< 0.008
O=C1NC2CSC(CCCCC(=O)OCCOc3ccc(C4c5[nH]c6ccc(Cl)cc6c5CCN4C(=O)Oc4ccc(Cl)cc4)cc3)C2N1 (centres unmarked) [Compound 544]	< 0.008
CN1CCN(CCCOc2ccc(C3c4[nH]c5ccc(Cl)cc5c4CCN3C(=O)Oc3ccc(Cl)cc3)cc2)CC1 (centres unmarked) [Compound 961]	0.008 to 0.04
O=C(Oc1ccc(Cl)cc1)N1CCc2c([nH]c3ccc(Cl)cc23)C1c1ccc(OCC(O)CN2CCOCC2)cc1 (centres unmarked) [Compound 904]	< 0.008

From patent publication US20120202801A1, “METHODS FOR TREATING BREAST CANCER” (priority 2009, published 2012)
